Results on 24 compounds are retold here after patent US11384060B2, “Amide compounds and use thereof” (ALPHALA CO., LTD., priority 2017, dated 2022).

Like-named read-outs stand apart in the source and are kept apart here.

One assay addresses T1, glucagon receptor (GCGR) (Homo sapiens, UniProt P47871).
T1 construct: expressed in transfected cells; host or cells: CHO-K1 cells overexpressing GCGR (membrane fractions)
The assay can be described thus: I125-glucagon binding assay (competition, GCGR membrane fractions). Put shortly:
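Membranes from CHO-K1 cells overexpressing GCGR, 7.5 μg/well in 50 mM Tris pH 7.4 with 0.5% BSA, were preincubated 5 min with serially diluted compounds, then given 0.0625 nM final I^125-glucagon for 30 min at 25° C. Bound label was filtered on PEI-coated GF/B and counted; IC50 by non-linear regression.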

Assay [1] concerns the target T2, glucagon receptor (GCGR) overexpressed CHO-K1 cells or human primary hepatocytes (Homo sapiens, UniProt P47871).
T2 construct: expressed in transfected cells; host or cells: GCGR overexpressed CHO-K1 cells or human primary hepatocytes (endogenous receptor)
Briefly: Glucagon cAMP inhibition assay (Cisbio cAMP Dynamic 2 HTRF). It is filed as cell-based. Put shortly: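 GCGR-overexpressing CHO-K1 cells or human primary hepatocytes in HBSS with 0.1% BSA and 800 nM IBMX, pre-incubated 30 min with serially diluted compounds (1% DMSO final), then stimulated 30 min at room temperature with glucagon at its EC50. cAMP measured by HTRF after 60 min lysis; IC50 by non-linear regression.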

[2] abbreviates: competition with I125-glucagon 0.0625 nM, membrane fractions of GCGR overexpressed CHO-K1 cells.
The mark [3] stands for this setting: inhibition of glucagon (EC50 concentration) induced cAMP production.

T2 sequence (P47871 26-477): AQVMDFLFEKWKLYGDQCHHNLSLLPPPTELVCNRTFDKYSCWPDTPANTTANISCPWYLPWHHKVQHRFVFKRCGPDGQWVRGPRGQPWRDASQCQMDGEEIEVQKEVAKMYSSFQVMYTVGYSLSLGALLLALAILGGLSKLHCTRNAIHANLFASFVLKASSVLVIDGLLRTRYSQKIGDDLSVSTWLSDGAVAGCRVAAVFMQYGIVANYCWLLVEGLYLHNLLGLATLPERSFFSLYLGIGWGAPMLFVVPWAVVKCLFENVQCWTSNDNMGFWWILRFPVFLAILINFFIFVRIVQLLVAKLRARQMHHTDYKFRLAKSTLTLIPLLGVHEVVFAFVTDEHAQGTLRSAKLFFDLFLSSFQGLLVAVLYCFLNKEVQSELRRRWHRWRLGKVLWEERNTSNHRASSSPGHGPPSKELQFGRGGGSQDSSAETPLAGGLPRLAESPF
T1 sequence (P47871 26-477): as above

On to `CCCC[C@@H](COc1ccc(-c2ccc(C(F)(F)F)cc2Cl)cn1)Nc1ccc(C(=O)NCCC(=O)O)cc1` [Compound 15-25, (S)-3-(4-((1-((5-(2-chlor-4-(trifluoromethyl)phenyl)pyridin-2-yl)oxy)hexan-2-yl)amino)benzamido)propanoic Acid], for which the concentration for half-maximal inhibition (IC50) on glucagon receptor (GCGR) worked out at 218 nM. In assay [1], the “IC50 cAMP” value amounted to 245 nM.
As to `CC(C)COC[C@H](Cc1ccc(-c2ccc(OC(F)(F)F)cc2)cc1)Nc1ccc(C(=O)NCCC(=O)O)cc1` [Compound 19-33, (S)-3-(4-((1-isobutoxy-3-(4′-(trifluoromethoxy)-[1,1′-biphenyl]-4-yl)propan-2-yl)amino)benzamido)propanoic Acid], on glucagon receptor (GCGR), the 50% inhibitory concentration (IC50) came out at 284 nM. Besides, the “IC50 cAMP” value in assay [1] was 472 nM.
In the same order, the values of `CCCOC[C@H](Cc1ccc(-c2ccc(OC(F)(F)F)cc2)cc1)Nc1ccc(C(=O)NCCC(=O)O)cc1` [Compound 19-14, (S)-3-(4-((1-propoxy-3-(4′-(trifluoromethoxy)-[1,1′-biphenyl]-4-yl)propan-2-yl)amino)benzamido)propanoic Acid] are 444 nM and 787 nM.
Take `Cc1cc(C)c(-c2ccc(NC(=O)[C@H](Cc3ccccc3)Nc3ccc(C(=O)NCCC(=O)O)cc3)cc2)c(C)c1` [Compound 23-3, (S)-3-(4-((1-oxo-3-phenyl-1-((2′,4′,6′-trimethyl-[1,1′-biphenyl]-4-yl)amino)propan-2-yl)amino)benzamido)propanoic Acid]: the IC50 at glucagon receptor (GCGR) turned out to be 388 nM. Besides, the “IC50 cAMP” value in assay [1] is on record as 5800 nM.
The compound `CC(C)[C@@H](CSc1ccc(-c2cc3ccccc3o2)cc1)Nc1ccc(C(=O)NCCC(=O)O)cc1` [Compound 5-1, (S)-3-(4-((1-((4-(benzofuran-2-yl)phenyl)thio)-3-methylbutan-2-yl)amino)benzamido)propanoic Acid] returned an IC50 on glucagon receptor (GCGR) (setting [2]) of 2040 nM. Also, in assay [1] (setting [3]), the “IC50 cAMP” value was 14405 nM.
On glucagon receptor (GCGR), `CC(C)COC[C@@H](Cc1ccc(-c2ccc(Cl)cc2Cl)cc1)Nc1ccc(C(=O)NCCC(=O)O)cc1` [Compound 19-20, (R)-3-(4-((1-(2′,4′-dichloro-[1,1′-biphenyl]-4-yl)-3-isobutoxypropan-2-yl)amino)benzamido)propanoic Acid] came in with a half-inhibitory concentration (IC50) of 1150 nM. In addition, in assay [1], the “IC50 cAMP” value was 822.4 nM.
The compound `CC(C)[C@@H](COc1ccc(-c2cc3ccccc3o2)c(Cl)c1)Nc1ccc(C(=O)NCCC(=O)O)cc1` [Compound 3-7, (S)-3-(4-((1-(4-(benzofuran-2-yl)-3-chlorophenoxy)-3-methylbutan-2-yl)amino)benzamido)propanoic Acid] yielded a 50% inhibitory concentration (IC50) on glucagon receptor (GCGR) (setting [2]) of 103 nM. Besides, the “IC50 cAMP” value in assay [1] (setting [3]) was found to be 363.5 nM.
For `CC[C@H](C)[C@@H](COc1ccc(-c2ccc(F)cc2F)cn1)Nc1ccc(C(=O)NCCC(=O)O)cc1` [Compound 15-20, 3-(4-(((2S,3S)-1-((5-(2,4-difluorophenyl)pyridin-2-yl)oxy)-3-methylpentan-2-yl)amino)benzamido)propanoic Acid], the IC50 at glucagon receptor (GCGR) is 382 nM. Moreover, the “IC50 cAMP” value in assay [1] worked out at 1255 nM.
In the same order, the values of `CCCC[C@H](Nc1ccc(C(=O)NCCC(=O)O)cc1)C(=O)Nc1ccc(-c2cc3ccccc3o2)cc1` [Compound 23-35, (S)-3-(4-((1-((4-(benzofuran-2-yl)phenyl)amino)-1-oxohexan-2-yl)amino)benzamido) propanoic Acid] are 186 nM and 15397 nM.
As to `CC[C@H](C)[C@@H](COc1cc(C)c(-c2cc3ccccc3o2)c(C)c1)Nc1ccc(C(=O)NCCC(=O)O)cc1` [Compound 2-7, 3-(4-(((2S,3S)-1-(4-(benzofuran-2-yl)-3,5-dimethylphenoxy)-3-methylpentan-2-yl)amino)benzamido)propanoic Acid], the IC50 on glucagon receptor (GCGR) (setting [2]) amounted to 158 nM. Besides, the “IC50 cAMP” value in assay [1] (setting [3]) is 468 nM.
`CC(C)[C@@H](COc1ccc(-c2ccc(C(F)(F)F)cc2)cn1)Nc1ccc(C(=O)NCCC(=O)O)cc1` [Compound 15-7, (S)-3-(4-((3-methyl-1-((5-(4-(trifluoromethyl)phenyl)pyridin-2-yl)oxy)butan-2-yl)amino)benzamido)propanoic Acid] came in with a 50% inhibitory concentration (IC50) on glucagon receptor (GCGR) of 753 nM. In assay [1], the “IC50 cAMP” value stood at 258.8 nM.
In turn, `CC(C)[C@H](Nc1ccc(C(=O)NCCC(=O)O)cc1)c1nnc(-c2ccc(C(C)(C)C)cc2)o1` [Compound 20-4, (S)-3-(4-((1-(5-(4-(tert-butyl)phenyl)-1,3,4-oxadiazol-2-yl)-2-methylpropyl)amino)benzamido)propanoic Acid] had an IC50 on glucagon receptor (GCGR) of 1040 nM. Moreover, the “IC50 cAMP” value in assay [1] is on record as 4853 nM.
`CCCC[C@@H](COc1ccc(-c2ccc(C(F)(F)F)cc2F)c(OC)c1)Nc1ccc(C(=O)NCCC(=O)O)cc1` [Compound 13-14, (S)-3-(4-((1-((2′-fluoro-2-methoxy-4′-(trifluoromethyl)-[1,1′-biphenyl]-4-yl)oxy)hexan-2-yl)amino)benzamido)propanoic Acid] gave a concentration for half-maximal inhibition (IC50) on glucagon receptor (GCGR) (setting [2]) of 15 nM. Further, the “IC50 cAMP” value in assay [1] (setting [3]) was 66 nM.
For the compound `CC(C)[C@@H](COc1ccc(-c2nc3ccccc3s2)cc1)Nc1ccc(C(=O)NCCC(=O)O)cc1` [Compound 1-32, (S)-3-(4-((1-(4-(benzo[d]thiazol-2-yl)phenoxy)-3-methylbutan-2-yl)amino)benzamido)propanoic Acid], on glucagon receptor (GCGR) (setting [2]), the IC50 stood at 57 nM. The “IC50 cAMP” value in assay [1] (setting [3]) is 152 nM.
Compound `CC(C)[C@@H](COc1ccc(-c2ccc(C(F)(F)F)cc2)cn1)Nc1ccc(C(=O)NCc2nnn[nH]2)cc1` [Compound 15-2, (S)—N-((1H-tetrazol-5-yl)methyl)-4-((3-methyl-1-((5-(4-(trifluoromethyl)phenyl)pyridin-2-yl)oxy)butan-2-yl)amino)benzamide] yielded an IC50 on glucagon receptor (GCGR) of 390 nM. In addition, the “IC50 cAMP” value in assay [1] was determined as 1543 nM.
On glucagon receptor (GCGR) (setting [2]), `CC(C)[C@@H](COc1ccc(-c2ccc(C(F)(F)F)cc2Cl)c(F)c1)Nc1ccc(C(=O)NCCC(=O)O)cc1` [Compound 8-5, (S)-3-(4-((1-((2′-chloro-2-fluoro-4′-(trifluoromethyl)-[1,1′-biphenyl]-4-yl)oxy)-3-methylbutan-2-yl)amino)benzamido)propanoic Acid] gave a concentration for half-maximal inhibition (IC50) of 75 nM. In addition, the “IC50 cAMP” value in assay [1] (setting [3]) worked out at 85 nM.
Consider `CC[C@H](C)[C@@H](COc1cc(C)c(-c2ccc(Cl)cc2Cl)c(C)c1)Nc1ccc(C(=O)NCCC(=O)O)cc1` [Compound 2-9, 3-(4-(((2S,3S)-1-((2′,4′-dichloro-2,6-dimethyl-[1,1′-biphenyl]-4-yl)oxy)-3-methylpentan-2-yl)amino)benzamido)propanoic Acid], for which the 50% inhibitory concentration (IC50) at glucagon receptor (GCGR) (setting [2]) is 60 nM. The “IC50 cAMP” value in assay [1] (setting [3]) turned out to be 447.6 nM.
`CC(C)[C@@H](COc1nnc(-c2cc3ccccc3o2)o1)Nc1ccc(C(=O)NCCC(=O)O)cc1` [Compound 22-12, (S)-3-(4-((1-((5-(benzofuran-2-yl)-1,3,4-oxadiazol-2-yl)oxy)-3-methylbutan-2-yl)amino)benzamido)propanoic Acid] registered an IC50 on glucagon receptor (GCGR) above 30000 nM. Besides, the “IC50 cAMP” value in assay [1] was above 30000 nM.
On glucagon receptor (GCGR), `CC(C)(C)c1ccc(-c2ccc(OC[C@@H](Nc3ccc(C(=O)NC[C@@H](O)C(=O)O)cc3)c3ccccc3)nc2)cc1` [Compound 15-6, (R)-3-(4-(((S)-2-((5-(4-(tert-butyl)phenyl)pyridin-2-yl)oxy)-1-phenylethyl)amino)benzamido)-2-hydroxypropanoic Acid] gave an IC50 of 172 nM. Also, the “IC50 cAMP” value in assay [1] is given as above 30000 nM.
As to `O=C(NCCS(=O)(=O)O)c1ccc(N[C@H](COc2ccc(-c3cc4ccccc4o3)cn2)c2ccc(-c3ccc(C(F)(F)F)cc3)cc2)cc1` [Compound 15-28, (S)-2-(4-((2-((5-(benzofuran-2-yl)pyridin-2-yl)oxy)-1-(4′-(trifluoromethyl)-[1,1′-biphenyl]-4-yl)ethyl)amino)benzamido)ethane-1-sulfonic Acid], the IC50 on glucagon receptor (GCGR) was determined as 100 nM. The “IC50 cAMP” value in assay [1] is recorded as 11647 nM.
Turning to `CCCC[C@@H](COc1nnc(-c2cc3ccccc3o2)o1)Nc1ccc(C(=O)NCCC(=O)O)cc1` [Compound 22-4, (S)-3-(4-((1-((5-(benzofuran-2-yl)-1,3,4-oxadiazol-2-yl)oxy)hexan-2-yl)amino)benzamido)propanoic Acid], the IC50 on glucagon receptor (GCGR) was above 30000 nM. Also, the “IC50 cAMP” value in assay [1] is on record as above 30000 nM.
In turn, `CC[C@H](C)[C@@H](COc1ccc(-c2cc3ccccc3o2)cn1)Nc1ccc(C(=O)NCCC(=O)O)cc1` [Compound 15-15, 3-(4-(((2S,3S)-1-((5-(benzofuran-2-yl)pyridin-2-yl)oxy)-3-methylpentan-2-yl)amino)benzamido)propanoic Acid] came in with an IC50 at glucagon receptor (GCGR) of 207 nM. Also, the “IC50 cAMP” value in assay [1] was 32.73 nM.
Taken in the same sequence, the figures for `CCOC(=O)CCNC(=O)c1ccc(N[C@H](COc2ccc(-c3nnc(C(C)(C)C)o3)cn2)c2ccc(-c3ccc(C(F)(F)F)cc3F)cc2)cc1` [Compound 15-31, Ethyl (S)-3-(4-((2-((5-(5-(tert-butyl)-1,3,4-oxadiazol-2-yl)pyridin-2-yl)oxy)-1-(2′-fluoro-4′-(trifluoromethyl)-[1,1′-biphenyl]-4-yl)ethyl)amino)benzamido)propanoate] were above 30000 nM and above 30000 nM.
For the compound `CC(C)(C)[C@@H](COc1ccc(-c2ccc(Cl)cc2Cl)c(F)c1)Nc1ccc(C(=O)NCCC(=O)O)cc1` [Compound 8-22, (S)-3-(4-((1-((2′,4′-dichloro-2-fluoro-[1,1′-biphenyl]-4-yl)oxy)-3,3-dimethylbutan-2-yl)amino)benzamido)propanoic Acid], the IC50 on glucagon receptor (GCGR) (setting [2]) came out at 68 nM. The “IC50 cAMP” value in assay [1] (setting [3]) was found to be 166.9 nM.
